# Values joined by “and” are separate entries in the source; they are usually repeats but may differ in a detail not shown here. Identical values can stand only once.
# Tests used:
# [1] = system: Ω-amidase in corn leaves; experiment: Treatment of corn leaves with ω-amidase inhibitor DON (foliar spray); assay type: in vivo
# Description: (§1) HPLC Assay for 2-oxoglutaramate: HPLC was used to assay 2-oxoglutaramate, following a modification of Calderon et al., 1985, J Bacteriol 161(2): 807-809. Briefly, 2-oxoglutaramate was extracted from plant tissue in distilled de-ionized water acidified to less than pH 2.0 with HCl using a weight to volume ratio of 2:1. 2-Oxoglutaramate was detected and quantified by HPLC, using an ION-300 7.8 mm ID×30 cm L column, with a mobile phase in 0.01NH2SO4, a flow rate of approximately 0.2 ml/min, at 40° C. Injection volume is approximately 20 and retention time between about 38 and 39 minutes. Detection is achieved with 210 nm UV light. Authentic 2-oxoglutaramate was used to calibrate the assay.
# (§2) Ω-amidase activity was determined using the 96-well plate assay as described in Krasnikov et al., 2009, Analytical Biochemistry 391: 144-150.
# (§3) Columbia nutrient solution was utilized (Knight and Weissman, 1982, Plant Physiol. 70: 1683).
# Plants were grown in sand at 24° C. using a 16 hour/day light and 8 hour/day dark photoperiod. Seeds were germinated in the sand and allowed to grow for 9-14 days after seedling emergence. Seedlings (1 per 3 inch pot) were provided nutrients daily. The top of each pot was covered with Saran plastic film, with a slit cut to allow the seedlings room to emerge, in order to prevent treatment solution from reaching the soil. Leaves were treated by spraying DON treatment/nutrient solution twice daily. The DON treatment/nutrient solution contained 1 microgram/ml DON, 50 micoliters/liter SILWET L77 (a surfactant) and 0.02 vol/vol % glycerol (a humectant) at pH 6.3, dissolved in nutrient solution. Control plants were sprayed daily with the same solution without DON. An airbrush was used to apply the solutions until drip. Plants were sacrificed and analyzed for fresh weight, ω-amidase activity, and 2-oxoglutaramate concentrations in leaf and root tissue 14 days after initiation of treatment.
# [2] = system: Ω-amidase in corn roots; experiment: Treatment of sweet corn roots with ω-amidase inhibitor DON (hydroponic); assay type: in vivo
# Description: as §1, §2, §3
# (§4) Plants were grown hydroponically at 24° C. using a 16 hour/day light and 8 hour/day dark photoperiod. Seeds were first germinated and seedlings were grown for 9 days, at which time the individual seedlings were suspended with their roots in the nutrient solution (600 ml of nutrient, pH 6.3) in an 800 ml beaker covered with aluminum foil, with a slit for the seedlings, to prevent algal growth. The beakers were aerated with air provided by a small pump and delivered into the solution through a glass Pasteur pipette. For the treatments, DON was added to the nutrient solution to a final concentration of 1 microgram per ml. Thus DON was supplied continuously to the treated seedlings. The controls were grown in the same nutrient solution without DON. The solutions were refreshed every third day. Plants were sacrificed and analyzed for fresh weight, ω-amidase activity, and 2-oxoglutaramate concentrations in leaf and root tissue 14 days after initiation of treatment.
# [3] = system: Ω-amidase in bean roots; experiment: Treatment of pole bean roots with ω-amidase inhibitor DON (hydroponic); assay type: in vivo
# Description: as §1, §2, §3, §4
# [4] = system: GPT (glutamine phenylpyruvate transaminase), substrate glutamine; experiment: Kinetic analysis of GPT substitution mutants expressed in E. coli; assay type: biochemical, Arabidopsis; settings: enzyme expressed in E. coli
# Description: Maximal velocity was determined using the formula: Vmax=Kcat[E]tot. The apparent unimolecular rate constant kcat is also called turnover number and denotes the maximum number of enzymatic reactions catalyzed per second.
# This mutant GPT enzyme may be expected to produce more product, the 2-oxoglutaramate, per unit time than the wild type GPT when the concentration of the substrate glutamine is present in millimolar or greater quantities, thus assuring that the […] is saturating.
# [5] = leaf treatment with DON, average of treated plants
# [6] = leaves sprayed twice daily with 1 microgram/ml DON, 14 days (Table 17)
# [7] = root treatment 1 microgram per ml DON, 14 days
# [8] = bean, root treatment 1 microgram per ml DON, 14 days
molecule,measurement,setting,value
"[N-]=[N+]=CC(=O)CC[C@H](N)C(=O)O [DON, 6-diazo-5-oxo-nor-leucine]",corn plant fresh weights versus untreated,[1]; leaf treatment with DON,near doubling
same,increase of 2-oxoglutaramate in leaves over untreated plants,[1]; leaf treatment with DON,more than 7 fold
same,leaf ω-amidase activity relative to untreated plants,[1]; leaf treatment with DON,about 50%
same,Amidase activity Leaf,[1]; [5],0.135 μmole/gfw/hr
same,"Whole Plant Fresh Wt, Average",[1]; [5],21.4 g
same,2-Oxoglutaramate Concentration,"[1]; leaf treatment with DON, average of treated plants (Table 18)",838.8 nmoles/gfwt
same,Whole Plant Fresh Wt,"[1]; leaf treatment with DON, individual treated plants",20.9 g and 19.2 g and 24.3 g
same,2-OGM LEAF,[1]; [6],753.9 nmoles/gfwt
same,2-OGM ROOT,[1]; [6],126.8 nmoles/gfwt
same,LEAF/ROOT RATIO (2-OGM),[1]; [6],5.0
same,ω-amidase activity,[2]; continuous DON treatment of roots,None of the DON treated plants had detectable levels of ω-amidase activity
same,growth,"[2]; continuous DON treatment of roots, versus untreated control plants",severely stunted growth
same,2-OGM ROOT,[2]; [7],2288 nmoles/gfwt
same,LEAF/ROOT RATIO (2-OGM),[2]; [7],0.13
same,2-OGM LEAF,"[2]; root treatment 1 microgram per ml DON, 14 days, 2-OGM = 2-oxoglutaramate",300 nmoles/gfwt
same,increase of 2-oxoglutaramate in roots,"[2]; root treatment with DON, versus control",over 30 fold
same,% INCREASE IN FWT,"[2]; roots in nutrient solution with 1 microgram per ml DON continuously, 14 days after initiation of treatment",174%
same,ω-amidase activity,"[3]; bean, continuous DON treatment of roots",None of the DON treated plants had detectable levels of ω-amidase activity
same,growth,"[3]; bean, continuous DON treatment of roots, versus untreated control plants",severely stunted growth
same,2-OGM LEAF,[3]; [8],279 nmoles/gfwt
same,2-OGM ROOT,[3]; [8],1586 nmoles/gfwt
same,LEAF/ROOT RATIO (2-OGM),[3]; [8],0.18
same,% INCREASE IN FWT,"[3]; bean, roots in nutrient solution with 1 microgram per ml DON continuously, 14 days after initiation of treatment",198%
same,increase of 2-oxoglutaramate in roots,"[3]; beans, root treatment with DON, versus control",15 fold
"GPT/F:V mutant: mutant GPT from the natural Arabidopsis GPT, substituting V (valine) for the F (phenylalanine) residue in NLGQGFP; expressed in E. coli (protein, synthetic Arabidopsis glutamine phenylpyruvate transaminase (GPT) mutant GPT/FV with V substitution in conserved region at position 88, mutant GPT from the natural Arabidopsis GPT, substituting V (valine) for the F (phenylalanine) residue in NLGQGFP; expressed in E. coli) MYLDINGVMIKQFSFKASLLPFSSNFRQSSAKIHRPIGATMTTVSTQNESTQKPVQVAKRLEKFKTTIFTQMSILAVKHGAINLGQGVPNFDGPDFVKEAAIQAIKDGKNQYARGYGIPQLNSAIAARFREDTGLVVDPEKEVTVTSGCTEAIAAAMLGLINPGDEVILFAPFYDSYEATLSMAGAKVKGITLRPPDFSIPLEELKAAVTNKTRAILMNTPHNPTGKMFTREELETIASLCIENDVLVFSDEVYDKLAFEMDHISIASLPGMYERTVTMNSLGKTFSLTGWKIGWAIAPPHLTWGVRQAHSYLTFATSTPAQWAAVAALKAPESYFKELKRDYNVKKETLVKGLKEVGFTVFPSSGTYFVVADHTPFGMENDVAFCEYLIEEVGVVAIPTSVFYLNPEEGKNLVRFAFCKDEETLRGAIERMKQKLKRKV",Km,[4],750 µM
same,increase of Vmax over the wild type,[4],20%
same,Vmax,[4]; same amount of protein,6.04

# From patent US9068194B2, “Increasing plant growth by modulating omega-amidase expression in plants” (Los Alamos National Security, LLC, priority 2010, dated 2015)
